Data on 19 molecules can be found in patent US8227504B2, “Substituted N-phenyl-pyrrolidinylmethylpyrrolidine amides and therapeutic use thereof” (Sanofi, priority 2007, dated 2012).

The test has as its target T1, rhesus (Macacca Mulatta) H3 receptor (Macaca mulatta, UniProt Q865E1).
T1 construct: pcDNA5/FRT/TO (Invitrogen) containing the rhesus monkey (Macacca Mulatta) 445 amino acid H3 receptor
Description: Rhesus H3 [3H]-Methylhistamine radioligand binding assay (SPA). Also on record: species or system rhesus monkey (Macacca Mulatta). The conditions noted are these: [3H]-Methylhistamine 2 nM, rhesus H3 membranes, Cheng-Prusoff; read-out: Affinity: ki in Rhesus H3 membrane binding ki. On the procedure: Rhesus H3 membranes were prepared from the Flp-In T-REx 293 Cell Line (Invitrogen) stably transfected with pcDNA5/FRT/TO (Invitrogen) containing the rhesus monkey (Macacca Mulatta) 445 amino acid H3 receptor. (Genbank #AY231164). Stably transfected cultures were amplified in tissue culture flasks by standard tissue culture methods and induced to express rhesus H3 by exposure to 500 ng/ml tetracycline (Cellgro) for 24 hours. After induction, cells were dissociated from flasks utilizing Cell Stripper (Cellgro). Cells were centrifuged (1K×g, 5 min) and pellet frozen in an ethanol-dry ice bath to disrupt cell membranes. Frozen cell pellet was re-suspended in 5 mM HEPES (pH 7.4, Invitrogen) at 10 ml/1000 cm2 of harvested cells. The cell suspension was drawn through an 18 gauge needle (2-3×) followed by a 23 gauge needle (2-3×) to further disrupt cell membranes. The cell suspension was centrifuged (40K×g, 30 min). Cell membrane pellet was re-suspended in 5 mM HEPES (pH 7.4, Invitrogen) at a final protein concentration of 10 mg/ml. Rhesus H3 membranes were stored under liquid nitrogen prior to use in [3H]-Methylhistamine and GTPγS radioligand binding assays.
Rhesus H3 radioligand binding assay was performed using rhesus H3 receptor membranes (prepared as described above), [3H]-Methylhistamine (Perkin Elmer) and WGA SPA beads (wheat germ agglutinin scintillation proximity assay) beads (Amersham). The assay was performed in 96-well Opti-Plates (Packard). Each reaction contained 50 μl rhesus H3 membranes (20-30 μg total protein), 50 μl WGA SPA beads (0.1 μg) and 50 μl of 83Ci/mmol [^3H]-Methylhistamine (final concentration 2 nM) and 50 μl of tested compound. The compounds of this invention and/or vehicle were diluted with binding buffer from 10 mM DMSO stocks. Assay plates were sealed with TopSeal (Perkin Elmer) and mixed on shaker (25° C., 1 hour). Assay plates were read on TopCount scintillation counter (Packard). Results were analyzed by Hill transformation and Ki values were determined by Cheng-Prusoff equation.

Molecules are shown by their SMILES.

T1 sequence (Q865E1 1-445): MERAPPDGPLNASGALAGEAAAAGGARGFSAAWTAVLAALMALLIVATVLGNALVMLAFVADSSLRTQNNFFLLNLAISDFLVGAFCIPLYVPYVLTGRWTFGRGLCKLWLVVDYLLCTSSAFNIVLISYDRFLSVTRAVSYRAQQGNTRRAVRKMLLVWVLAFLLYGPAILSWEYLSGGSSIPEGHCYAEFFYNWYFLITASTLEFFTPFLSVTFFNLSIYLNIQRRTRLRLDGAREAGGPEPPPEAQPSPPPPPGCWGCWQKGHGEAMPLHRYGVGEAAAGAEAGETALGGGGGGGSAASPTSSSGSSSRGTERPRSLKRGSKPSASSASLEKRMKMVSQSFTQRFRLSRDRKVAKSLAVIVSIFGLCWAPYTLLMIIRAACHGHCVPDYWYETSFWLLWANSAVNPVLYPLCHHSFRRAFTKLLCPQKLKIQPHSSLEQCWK

A word on the Ki: it is the equilibrium dissociation constant of an inhibitor or competing ligand from its target. Consider `Cc1nc2cc(C(=O)Nc3ccc(N4CCC(CN5CCCC5C)C4)cc3C)ccc2[nH]1` (stereo not shown) [Example 1, 2-M ethyl-1H-benzoimidazole-5-carboxylic acid {2-methyl-4-[3-(2-methyl-pyrrolidin-1-ylmethyl)-pyrrolidin-1-yl]-phenyl}-amide], for which the Ki was determined as 0.0157 µM.
As for `Cc1cc(N2CCC(CN3CCCC3C)C2)ccc1NC(=O)c1cnc(NCCO)c(Cl)c1` (stereo not shown) [Example 2, 5-Chloro-6-(2-hydroxy-ethylamino)-N-{2-methyl-4-[3-(2-methyl-pyrrolidin-1-ylmethyl)-pyrrolidin-1-yl]-phenyl}-nicotinamide], the Ki is 0.0512 µM.
Under `Cc1cc(N2CCC(CN3CCCC3C)C2)ccc1NC(=O)c1cnc2cc(Cl)ccc2c1O` (stereo not shown) [Example 3, 7-Chloro-4-hydroxy-quinoline-3-carboxylic acid {2-methyl-4-[3-(2-methyl-pyrrolidin-1-ylmethyl)-pyrrolidin-1-yl]-phenyl}-amide] stands 0.0947 µM; under `Cc1cc(N2CCC(CN3CCCC3C)C2)ccc1NC(=O)c1ccc(-n2cccc2)nc1` (stereo not shown) [Example 4, N-{2-Methyl-4-[3-(2-methyl-pyrrolidin-1-ylmethyl)-pyrrolidin-1-yl]-phenyl}-6-pyrrol-1-yl-nicotinamide], 0.0393 µM.
Under `Cc1cc(N2CCC(CN3CCCC3C)C2)ccc1NC(=O)c1ccc2c(c1)CCO2` (stereo not shown) [Example 5, 2,3-Dihydro-benzofuran-5-carboxylic acid {2-methyl-4-[3-(2-methyl-pyrrolidin-1-ylmethyl)-pyrrolidin-1-yl]-phenyl}-amide] stands 0.0404 µM; under `Cc1cc(N2CCC(CN3CCCC3C)C2)ccc1NC(=O)c1ccc(COCc2ccccc2)nc1` (stereo not shown) [Example 6, 6-Benzyloxymethyl-N-{2-methyl-4-[3-(2-methyl-pyrrolidin-1-ylmethyl)-pyrrolidin-1-yl]-phenyl}-nicotinamide], 0.0954 µM.
Under `Cc1cc(N2CCC(CN3CCCC3C)C2)ccc1NC(=O)c1ccc2c(c1)OCO2` (stereo not shown) [Example 7, Benzo[1,3]dioxole-5-carboxylic acid {2-methyl-4-[3-(2-methyl-pyrrolidin-1-ylmethyl)-pyrrolidin-1-yl]-phenyl}-amide] stands 0.0342 µM; under `Cc1cc(N2CCC(CN3CCCC3C)C2)ccc1NC(=O)c1ccc2cc[nH]c2c1` (stereo not shown) [Example 8, 1H-Indole-6-carboxylic acid {2-methyl-4-[3-(2-methyl-pyrrolidin-1-ylmethyl)-pyrrolidin-1-yl]-phenyl}-amide], 0.018 µM.
In the case of `Cc1cc(N2CCC(CN3CCCC3C)C2)ccc1NC(=O)c1ccc(-n2ccnc2)cc1` (stereo not shown) [Example 9, 4-Imidazol-1-yl-N-{2-methyl-4-[3-(2-methyl-pyrrolidin-1-ylmethyl)-pyrrolidin-1-yl]-phenyl}-benzamide], the Ki amounted to 0.0031 µM.
Under `CC(=O)N1CCCC(c2ccc(C(=O)Nc3ccc(N4CCC(CN5CCCC5C)C4)cc3C)cc2)C1` (stereo not shown) [Example 10, 4-(1-Acetyl-piperidin-3-yl)-N-{2-methyl-4-[3-(2-methyl-pyrrolidin-1-ylmethyl)-pyrrolidin-1-yl]-phenyl}-benzamide] stands 0.0298 µM.
Under `Cc1cc(N2CCC(CN3CCCC3C)C2)ccc1NC(=O)c1ccc(CO)cc1` (stereo not shown) [Example 11, 4-Hydroxymethyl-N-{2-methyl-4-[3-(2-methyl-pyrrolidin-1-ylmethyl)-pyrrolidin-1-yl]-phenyl}-benzamide] stands 0.0621 µM; under `COc1ccc2[nH]c(C(=O)Nc3ccc(N4CCC(CN5CCCC5C)C4)cc3C)cc2c1` (stereo not shown) [Example 12, 5-Methoxy-1H-indole-2-carboxylic acid {2-methyl-4-[3-(2-methyl-pyrrolidin-1-ylmethyl)-pyrrolidin-1-yl]-phenyl}-amide], 0.0615 µM; under `Cc1cc(N2CCC(CN3CCCC3C)C2)ccc1NC(=O)c1ccc2c(c1)NC(=O)CNC2=O` (stereo not shown) [Example 13, 2,5-Dioxo-2,3,4,5-tetrahydro-1H-benzo[e][1,4]diazepine-8-carboxylic acid {2-methyl-4-[3-(2-methyl-pyrrolidin-1-ylmethyl)-pyrrolidin-1-yl]-phenyl}-amide], 0.0093 µM.
Under `COCCNC(=O)c1ccc(C(=O)Nc2ccc(N3CCC(CN4CCCC4C)C3)cc2C)cn1` (stereo not shown) [Example 14, Pyridine-2,5-dicarboxylic acid 2-[(2-methoxy-ethyl)-amide]5-({2-methyl-4-[3-(2-methyl-pyrrolidin-1-ylmethyl)-pyrrolidin-1-yl]-phenyl}-amide)] stands 0.0323 µM.
For `COc1ccc2cc(C(=O)Nc3ccc(N4CCC(CN5CCCC5C)C4)cc3C)oc2c1` (stereo not shown) [Example 15, 6-Methoxy-benzofuran-2-carboxylic acid {2-methyl-4-[3-(2-methyl-pyrrolidin-1-ylmethyl)-pyrrolidin-1-yl]-phenyl}-amide], the inhibition constant Ki turned out to be 0.0667 µM.
Under `Cc1cc(N2CCC(CN3CCCC3C)C2)ccc1NC(=O)c1ccc2c(c1)C(O)C(O)C(C)(C)O2` (stereo not shown) [Example 16, 3,4-Dihydroxy-2,2-dimethyl-chroman-6-carboxylic acid {2-methyl-4-[3-(2-methyl-pyrrolidin-1-ylmethyl)-pyrrolidin-1-yl]-phenyl}-amide] stands 0.0676 µM; under `Cc1ccc2c(O)c(C(=O)Nc3ccc(N4CCC(CN5CCCC5C)C4)cc3C)cnc2n1` (stereo not shown) [Example 17, 4-Hydroxy-7-methyl-[1,8]naphthyridine-3-carboxylic acid {2-methyl-4-[3-(2-methyl-pyrrolidin-1-ylmethyl)-pyrrolidin-1-yl]-phenyl}-amide], 0.0192 µM; under `CC1=NN(c2ccc(C(=O)Nc3ccc(N4CCC(CN5CCCC5C)C4)cc3C)cc2)C(=O)C1` (stereo not shown) [Example 18, N-{2-Methyl-4-[3-(2-methyl-pyrrolidin-1-ylmethyl)-pyrrolidin-1-yl]-phenyl}-4-(3-methyl-5-oxo-4,5-dihydro-pyrazol-1-yl)-benzamide], 0.0594 µM.
Under `Cc1ccc2oc(C(=O)Nc3ccc(N4CCC(CN5CCCC5C)C4)cc3C)cc(=O)c2c1` (stereo not shown) [Example 19, 6-Methyl-4-oxo-4H-chromene-2-carboxylic acid {2-methyl-4-[3-(2-methyl-pyrrolidin-1-ylmethyl)-pyrrolidin-1-yl]-phenyl}-amide] stands 0.0265 µM.
